# Data published in US20210393724A1, “MEDICINE FOR TREATMENT OF PSORIASIS AND PRODUCTION METHOD THEREOF” (YEDITEPE UNIVERSITESI, priority 2018, published 2021).
# Tested on: IMQ-induced psoriasis inflammation
# Assay: IMQ-induced psoriasis mouse model: PASI scoring, ear thickness, spleen/body weight
# Type: in vivo, BALB/c mice
# Conditions: MTX 1 mg/kg orally per day
# Protocol: The cream named Aldara (Meda Pharma, 3M Health Care) containing 5% Imiquimib (IMQ) was administered once a day for 6 days on the shaved backs and right ears of 8-11 weeks old adult male BALB/c mice such that a total of 62.5 mg cream is applied per day per animal thereby psoriasis inflammation was produced in the animal model. Vaseline was applied to the shaved area of the animals in the control group. The positive control group received 1 mg/kg Mtx (Methotrexate) orally per day. The drug was administered orally at a dose of 5 mg/kg once a day during the experiment. Administration of the drug to the animals in the group where the semi-therapeutic effect of the drug was to be tested was initiated 1 day after the onset of induction of psoriasis with IMQ, and continued until the end of the experiment period. Body weight, and redness, flaking and thickening on the skin were daily measured and scored according to the Psoriasis Area Severity. Index (PASI) to monitor the general health status of the animals and the induction of psoriasis with IMQ. As required by the model, thickening of the right ear skin was also recorded on a regular basis since the day the experiments began. At the end of the application, animals were anesthetized by isoflurane and then euthanized by cervical dislocation. The size and weight of the spleen tissues were recorded.
structure (smiles),measurement,setting,value
"CN(Cc1cnc2nc(N)nc(N)c2n1)c1ccc(C(=O)N[C@@H](CCC(=O)O)C(=O)O)cc1 [MTX, Methotrexate]",plaque formation (scaling) PASI score of IMQ-administered region on the back,as of the 4th day,decreased
same,total PASI score,as of the 4th day,Decrease
same,thickness PASI score of IMQ-administered region on the back,as of the 5th day,decreased
